Test results from the supplement of paper PMC10307832.

Assays:
Assay in all cases: relative viability (nuclei count vs DMSO), 5 days (fraction); higher = more cells survive
AZD5582 + Luminespib = compound: C[C@@H](C(=O)N[C@@H](C1CCCCC1)C(=O)N2CCC[C@H]2C(=O)N[C@@H]3[C@@H](CC4=CC=CC=C34)OCC#CC#CCO[C@@H]5CC6=CC=CC=C6[C@@H]5NC(=O)[C@@H]7CCCN7C(=O)[C@H](C8CCCCC8)NC(=O)[C@H](C)NC)NC [AZD5582] + CCNC(=O)c1noc(-c2cc(C(C)C)c(O)cc2O)c1-c1ccc(CN2CCOCC2)cc1 [Luminespib] (partner 0.01 µM)
Procedure, shortened: (§1)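 Medians of duplicate plates are given as relative viability. That measure is the nuclei count in treated wells divided by the count in vehicle wells. Counts were taken on 4× images of lung cancer cell lines in 1536-well plates, 5 days after pin-tool dosing the day after seeding with one drug alone or a fixed anchor-drug dose plus five library-drug doses (not always all listed) in √10 steps.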

AZD5582 + Palbociclib = compound: C[C@@H](C(=O)N[C@@H](C1CCCCC1)C(=O)N2CCC[C@H]2C(=O)N[C@@H]3[C@@H](CC4=CC=CC=C34)OCC#CC#CCO[C@@H]5CC6=CC=CC=C6[C@@H]5NC(=O)[C@@H]7CCCN7C(=O)[C@H](C8CCCCC8)NC(=O)[C@H](C)NC)NC [AZD5582] + CC(=O)c1c(C)c2cnc(Nc3ccc(N4CCNCC4)cn3)nc2n(C2CCCC2)c1=O [Palbociclib] (partner 0.5 µM)
Procedure, shortened: as §1

[1] = compound: Cn1nnc2c(C(N)=O)ncn2c1=O [Temozolomide] + CC(=O)c1c(C)c2cnc(Nc3ccc(N4CCNCC4)cn3)nc2n(C2CCCC2)c1=O [Palbociclib] (partner 0.5 µM)
Procedure, shortened: as §1

AZD5582 + AZD7762 = compound: C[C@@H](C(=O)N[C@@H](C1CCCCC1)C(=O)N2CCC[C@H]2C(=O)N[C@@H]3[C@@H](CC4=CC=CC=C34)OCC#CC#CCO[C@@H]5CC6=CC=CC=C6[C@@H]5NC(=O)[C@@H]7CCCN7C(=O)[C@H](C8CCCCC8)NC(=O)[C@H](C)NC)NC [AZD5582] + NC(=O)Nc1cc(-c2cccc(F)c2)sc1C(=O)N[C@H]1CCCNC1 [AZD7762] (partner 0.2 µM)
Procedure, shortened: as §1

| Cell Line | relative viability (AZD5582 + Luminespib; first compound 0.001581 µM) | relative viability (AZD5582 + Luminespib; first compound 0.005 µM) | relative viability (AZD5582 + Luminespib; first compound 0.05 µM) | relative viability (AZD5582 + Palbociclib; first compound 0.001581 µM) | relative viability (AZD5582 + Palbociclib; first compound 0.005 µM) | relative viability (AZD5582 + Palbociclib; first compound 0.01581 µM) | relative viability (AZD5582 + Palbociclib; first compound 0.05 µM) | relative viability ([1]; first compound 0.2 µM) | relative viability ([1]; first compound 0.6325 µM) | relative viability ([1]; first compound 2 µM) | relative viability ([1]; first compound 6.325 µM) | relative viability ([1]; first compound 20 µM) | relative viability (AZD5582 + AZD7762; first compound 0.001581 µM) | relative viability (AZD5582 + AZD7762; first compound 0.005 µM) | relative viability (AZD5582 + AZD7762; first compound 0.01581 µM) | relative viability (AZD5582 + AZD7762; first compound 0.05 µM) | relative viability (AZD5582 + Luminespib; first compound 0.01581 µM) |
| --- | --- | --- | --- | --- | --- | --- | --- | --- | --- | --- | --- | --- | --- | --- | --- | --- | --- |
| NCI-H322M | 0.979 | 1.11 | 1.44 | 0.526 | 0.521 | 0.456 | 0.605 | 0.451 | 0.483 | 0.465 | 0.441 | 0.414 | 0.53 | 0.598 | 0.504 | 0.6 |  |
| NCI-H358 | 0.225 | 0.279 | 0.417 | 0.124 | 0.156 | 0.14 | 0.136 | 0.137 | 0.143 | 0.128 | 0.136 | 0.131 | 0.471 | 0.586 | 0.697 | 0.506 | 0.357 |
| NCI-H441 | 0.313 | 0.388 | 0.422 | 0.232 | 0.224 | 0.206 | 0.187 | 0.23 | 0.211 | 0.211 | 0.245 | 0.226 | 0.942 | 0.895 | 1.02 | 0.867 |  |
| NCI-H460 | 0.0278 | 0.039 | 0.0351 | 0.102 | 0.189 | 0.211 | 0.148 | 0.159 | 0.175 | 0.152 | 0.267 | 0.183 | 0.516 | 0.628 | 0.562 | 0.639 | 0.0382 |
| NCI-H522 | 0.953 | 1.03 | 1.29 | 0.963 | 1.02 | 1.11 | 0.912 | 0.976 | 0.919 | 1.05 | 1.02 | 0.682 | 0.982 | 0.887 | 0.885 | 0.645 | 1.2 |
| NCI-H647 | 0.145 | 0.149 | 0.107 | 0.26 | 0.39 | 0.394 | 0.387 | 0.374 | 0.502 | 0.375 | 0.342 | 0.188 | 0.324 | 0.394 | 0.336 | 0.447 | 0.171 |
| NCI-H650 | 0.704 | 0.68 | 0.636 | 0.328 | 0.287 | 0.255 | 0.245 | 0.373 | 0.328 | 0.319 | 0.329 | 0.314 | 1.05 | 1.07 | 0.643 | 0.788 | 0.745 |
| NCI-H727 | 0.67 | 0.236 | 0.311 | 0.612 | 0.647 | 0.635 | 0.614 |  | 0.579 | 0.676 | 0.715 | 0.703 | 0.538 | 0.744 | 0.651 | 0.833 | 0.507 |
| NCI-H838 | 0.33 | 0.318 | 0.204 | 0.214 | 0.257 | 0.191 | 0.213 | 0.23 | 0.237 | 0.226 | 0.25 | 0.252 | 0.87 | 0.903 | 0.81 | 1.01 |  |
| NCI-H1355 | 0.599 | 0.674 | 0.923 | 0.378 | 0.415 | 0.386 | 0.357 | 0.35 | 0.4 | 0.413 | 0.404 | 0.361 | 0.47 | 0.667 | 0.643 | 0.556 | 0.606 |
| NCI-H1395 | 0.579 | 0.685 | 0.91 | 0.578 | 0.688 |  | 0.76 | 0.532 | 0.62 | 0.663 | 0.616 | 0.535 | 0.346 | 0.376 |  | 0.406 | 0.805 |
| NCI-H1437 | 1.11 | 0.986 | 1.14 | 0.266 | 0.307 | 0.278 | 0.31 | 0.292 | 0.336 | 0.31 | 0.329 | 0.325 | 1.1 | 1.14 | 1.09 | 1.14 | 1.12 |
| NCI-H1651 | 0.859 | 0.904 | 0.96 | 0.489 | 0.52 | 0.492 | 0.608 | 0.497 | 0.557 | 0.5 | 0.526 | 0.547 | 0.419 | 0.456 | 0.398 | 0.388 |  |
| NCI-H1666 | 0.888 | 0.931 | 0.946 | 0.678 | 0.579 | 0.575 | 0.661 | 0.693 | 0.672 | 0.642 | 0.756 | 0.667 | 0.774 | 0.85 | 0.737 | 0.746 | 1.01 |
| NCI-H1734 | 0.172 | 0.192 | 0.188 | 0.295 | 0.356 | 0.366 | 0.333 | 0.359 | 0.398 | 0.349 | 0.355 | 0.353 | 0.502 | 0.498 | 0.584 | 0.749 | 0.17 |
| NCI-H1755 | 0.259 | 0.49 | 0.437 | 0.449 | 0.484 | 0.453 | 0.526 | 0.443 | 0.478 | 0.477 | 0.436 | 0.424 | 0.438 | 0.472 | 0.291 | 0.494 | 0.329 |
| NCI-H1792 |  | 0.594 | 0.579 | 0.629 | 0.715 | 0.624 | 0.776 | 0.569 | 0.654 | 0.638 | 0.663 | 0.619 | 0.647 | 0.625 | 0.585 | 1.02 | 0.496 |
| NCI-H1793 | 0.23 | 0.282 | 0.18 | 0.311 | 0.355 | 0.297 | 0.397 |  | 0.268 | 0.367 | 0.318 | 0.264 | 0.254 | 0.795 | 0.277 | 0.487 | 0.239 |
